In PubChem BioAssay (NCI):
Several values for one entry are separate records, joined by “and”; a condition that tells them apart may be missing. Equal entries are not always repeated.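 Five concentrations, 48 hours, 96-well plates. Abbreviation: GI50, concentration required for 50% inhibition of growth. TGI denotes the concentration required for complete inhibition of growth.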

Columns and labels:
Test in all cases: DTP human tumour cell line panel, 48 h; in the data active = GI50 below about 0.43 µM; inactive = the rest
HCT-116 colon = test system: HCT-116 colon
ACHN renal = test system: ACHN renal
SF-539 CNS = test system: SF-539 CNS
OVCAR-3 ovarian = test system: OVCAR-3 ovarian
MDA-N = test system: MDA-N
MCF7 breast = test system: MCF7 breast
HS 578T breast = test system: HS 578T breast
MDA-MB-435 = test system: MDA-MB-435
LOX IMVI melanoma = test system: LOX IMVI melanoma
TK-10 renal = test system: TK-10 renal
RPMI-8226 leukemia = test system: RPMI-8226 leukemia
NCI-H23 lung = test system: NCI-H23 lung
EKVX NSCLC = test system: EKVX NSCLC
SF-295 CNS = test system: SF-295 CNS
HCC-2998 colon = test system: HCC-2998 colon
NCI-H522 lung = test system: NCI-H522 lung
NCI-H460 lung = test system: NCI-H460 lung
T-47D breast = test system: T-47D breast
K-562 leukemia = test system: K-562 leukemia
SK-MEL-5 melanoma = test system: SK-MEL-5 melanoma
M14 melanoma = test system: M14 melanoma
RXF 393 renal = test system: RXF 393 renal
COLO 205 colon = test system: COLO 205 colon
CAKI-1 renal = test system: CAKI-1 renal
SR leukemia = test system: SR leukemia
NCI-H226 lung = test system: NCI-H226 lung
KM12 colon = test system: KM12 colon
SK-MEL-28 melanoma = test system: SK-MEL-28 melanoma
SK-MEL-2 melanoma = test system: SK-MEL-2 melanoma
PC-3 prostate = test system: PC-3 prostate
A498 renal = test system: A498 renal
IGROV1 ovarian = test system: IGROV1 ovarian
HL-60(TB) leukemia = test system: HL-60(TB) leukemia
HOP-62 NSCLC = test system: HOP-62 NSCLC
A549 NSCLC = test system: A549 NSCLC
DU-145 prostate = test system: DU-145 prostate
BT-549 breast = test system: BT-549 breast
SF-268 CNS = test system: SF-268 CNS
SK-OV-3 ovarian = test system: SK-OV-3 ovarian
MDA-MB-231 breast = test system: MDA-MB-231 breast
786-0 renal = test system: 786-0 renal
UO-31 renal = test system: UO-31 renal
SN12C renal = test system: SN12C renal
HT29 colon = test system: HT29 colon
MOLT-4 leukemia = test system: MOLT-4 leukemia
HOP-92 NSCLC = test system: HOP-92 NSCLC
HCT-15 colon = test system: HCT-15 colon
U251 CNS = test system: U251 CNS
UACC-257 melanoma = test system: UACC-257 melanoma
OVCAR-8 ovarian = test system: OVCAR-8 ovarian
OVCAR-5 ovarian = test system: OVCAR-5 ovarian
SNB-19 CNS = test system: SNB-19 CNS
CCRF-CEM leukemia = test system: CCRF-CEM leukemia
OVCAR-4 ovarian = test system: OVCAR-4 ovarian
SW-620 colon = test system: SW-620 colon
UACC-62 melanoma = test system: UACC-62 melanoma
MALME-3M melanoma = test system: MALME-3M melanoma
SNB-75 CNS = test system: SNB-75 CNS
NCI/ADR-RES ovarian = test system: NCI/ADR-RES ovarian
DMS 114 small cell lung = test system: DMS 114 small cell lung
SNB-78 CNS = test system: SNB-78 CNS
LXFL 529 NSCLC = test system: LXFL 529 NSCLC
KM20L2 colon = test system: KM20L2 colon
DMS 273 small cell lung = test system: DMS 273 small cell lung
HOP-18 NSCLC = test system: HOP-18 NSCLC
M19-MEL melanoma = test system: M19-MEL melanoma
DLD-1 colon = test system: DLD-1 colon

COc1ccc2nc3cc(Cl)ccc3c(NCCNC(=O)Cn3c(=O)n(C)c(=O)c4c3nc3c(c(=O)n(C)c(=O)n3C)[n+]4[O-])c2c1
49.1 µM: TGI (BT-549 breast)
> 52.9 µM: TGI (UACC-62 melanoma)
50.8 µM: TGI (HOP-62 NSCLC)
> 74.6 µM: TGI (NCI-H522 lung)
56 µM: TGI (NCI-H23 lung)
61.6 µM: TGI (IGROV1 ovarian)
57 µM: TGI (OVCAR-8 ovarian)
> 65 µM: TGI (SF-539 CNS)
92.2 µM: TGI (SNB-75 CNS)
> 74.7 µM: TGI (HOP-92 NSCLC)
> 71.7 µM: TGI (SW-620 colon)
> 95.8 µM: TGI (NCI/ADR-RES ovarian)
58.9 µM: TGI (U251 CNS)
> 69.5 µM: TGI (MDA-MB-435)
71.2 µM: TGI (HS 578T breast)
98.8 µM: TGI (A498 renal)
> 80.1 µM: TGI (NCI-H226 lung)
> 100 µM: TGI (HCT-116 colon) | TGI (ACHN renal) | TGI (OVCAR-3 ovarian) | TGI (MDA-N) | TGI (MCF7 breast) | TGI (LOX IMVI melanoma) | TGI (RPMI-8226 leukemia) | TGI (EKVX NSCLC) | TGI (SF-295 CNS) | TGI (HCC-2998 colon) | TGI (NCI-H460 lung) | TGI (T-47D breast) | TGI (K-562 leukemia) | TGI (SK-MEL-5 melanoma) | TGI (M14 melanoma) | TGI (RXF 393 renal) | TGI (COLO 205 colon) | TGI (CAKI-1 renal) | TGI (KM12 colon) | TGI (SK-MEL-2 melanoma) | TGI (PC-3 prostate) | TGI (HL-60(TB) leukemia) | TGI (A549 NSCLC) | TGI (DU-145 prostate) | TGI (SK-OV-3 ovarian) | TGI (MDA-MB-231 breast) | TGI (786-0 renal) | TGI (UO-31 renal) | TGI (SN12C renal) | TGI (HCT-15 colon) | TGI (OVCAR-5 ovarian) | TGI (CCRF-CEM leukemia) | TGI (OVCAR-4 ovarian) | TGI (MALME-3M melanoma)
> 55.9 µM: TGI (UACC-257 melanoma)
63.8 µM: TGI (SR leukemia)
> 77.9 µM: TGI (SNB-19 CNS)
> 90.8 µM: TGI (MOLT-4 leukemia)
60.8 µM: TGI (SF-268 CNS)
> 31.6 µM: TGI (SK-MEL-28 melanoma)
> 65.1 µM: TGI (HT29 colon)
> 56.1 µM: TGI (TK-10 renal)

Cc1cc(C)n(-c2nsc3ccccc23)n1
> 100 µM: TGI (HCT-116 colon) | TGI (ACHN renal) | TGI (SF-539 CNS) | TGI (OVCAR-3 ovarian) | TGI (LOX IMVI melanoma) | TGI (TK-10 renal) | TGI (DMS 114 small cell lung) | TGI (RPMI-8226 leukemia) | TGI (NCI-H23 lung) | TGI (EKVX NSCLC) | TGI (HCC-2998 colon) | TGI (NCI-H460 lung) | TGI (K-562 leukemia) | TGI (SK-MEL-5 melanoma) | TGI (M14 melanoma) | TGI (RXF 393 renal) | TGI (COLO 205 colon) | TGI (SR leukemia) | TGI (KM12 colon) | TGI (SK-MEL-28 melanoma) | TGI (SK-MEL-2 melanoma) | TGI (IGROV1 ovarian) | TGI (HL-60(TB) leukemia) | TGI (HOP-62 NSCLC) | TGI (A549 NSCLC) | TGI (SNB-78 CNS) | TGI (SF-268 CNS) | TGI (UO-31 renal) | TGI (LXFL 529 NSCLC) | TGI (SN12C renal) | TGI (KM20L2 colon) | TGI (DMS 273 small cell lung) | TGI (HT29 colon) | TGI (MOLT-4 leukemia) | TGI (HOP-92 NSCLC) | TGI (HCT-15 colon) | TGI (U251 CNS) | TGI (UACC-257 melanoma) | TGI (OVCAR-8 ovarian) | TGI (OVCAR-5 ovarian) | TGI (SNB-19 CNS) | TGI (CCRF-CEM leukemia) | TGI (OVCAR-4 ovarian) | TGI (SW-620 colon) | TGI (UACC-62 melanoma) | TGI (HOP-18 NSCLC) | TGI (M19-MEL melanoma)
98.3 µM: TGI (SNB-75 CNS)

CN(O)C(=O)SCC(NC(=O)CCC(N)C(=O)O)C(=O)NCC(=O)O (configuration not stated)
> 2000 µM: TGI (HCT-116 colon) | TGI (ACHN renal) | TGI (OVCAR-3 ovarian) | TGI (LOX IMVI melanoma) | TGI (TK-10 renal) | TGI (DMS 114 small cell lung) | TGI (RPMI-8226 leukemia) | TGI (NCI-H23 lung) | TGI (DLD-1 colon) | TGI (EKVX NSCLC) | TGI (NCI-H522 lung) | TGI (NCI-H460 lung) | TGI (K-562 leukemia) | TGI (SK-MEL-5 melanoma) | TGI (M14 melanoma) | TGI (RXF 393 renal) | TGI (COLO 205 colon) | TGI (CAKI-1 renal) | TGI (NCI-H226 lung) | TGI (KM12 colon) | TGI (SK-MEL-28 melanoma) | TGI (SK-MEL-2 melanoma) | TGI (A498 renal) | TGI (IGROV1 ovarian) | TGI (HL-60(TB) leukemia) | TGI (A549 NSCLC) | TGI (SF-268 CNS) | TGI (SK-OV-3 ovarian) | TGI (786-0 renal) | TGI (UO-31 renal) | TGI (LXFL 529 NSCLC) | TGI (SN12C renal) | TGI (KM20L2 colon) | TGI (DMS 273 small cell lung) | TGI (HT29 colon) | TGI (MOLT-4 leukemia) | TGI (HOP-92 NSCLC) | TGI (UACC-257 melanoma) | TGI (OVCAR-8 ovarian) | TGI (SNB-19 CNS) | TGI (OVCAR-4 ovarian) | TGI (SW-620 colon) | TGI (UACC-62 melanoma) | TGI (HOP-18 NSCLC) | TGI (MALME-3M melanoma) | TGI (M19-MEL melanoma) | TGI (SNB-75 CNS)
> 2 µM: TGI (SF-539 CNS) | TGI (SF-295 CNS) | TGI (HCC-2998 colon) | TGI (SR leukemia) | TGI (SNB-78 CNS) | TGI (OVCAR-5 ovarian)
inactive: GI50 (HCT-116 colon) > 2000 µM | GI50 (ACHN renal) > 2000 µM | GI50 (OVCAR-3 ovarian) > 2000 µM | GI50 (LOX IMVI melanoma) 668 µM | GI50 (TK-10 renal) > 2000 µM | GI50 (DMS 114 small cell lung) > 2000 µM | GI50 (RPMI-8226 leukemia) > 2000 µM | GI50 (NCI-H23 lung) > 2000 µM | GI50 (DLD-1 colon) > 2000 µM | GI50 (EKVX NSCLC) > 2000 µM | GI50 (NCI-H522 lung) > 2000 µM | GI50 (NCI-H460 lung) > 2 µM | GI50 (K-562 leukemia) > 2 µM and 812 µM | GI50 (SK-MEL-5 melanoma) > 2000 µM | GI50 (M14 melanoma) > 2000 µM | GI50 (RXF 393 renal) > 2000 µM | GI50 (COLO 205 colon) > 2000 µM | GI50 (CAKI-1 renal) > 2000 µM | GI50 (NCI-H226 lung) > 2000 µM | GI50 (KM12 colon) > 2 µM | GI50 (SK-MEL-28 melanoma) > 2000 µM | GI50 (SK-MEL-2 melanoma) > 2 µM and 524 µM | GI50 (A498 renal) > 2000 µM | GI50 (IGROV1 ovarian) > 2000 µM | GI50 (HL-60(TB) leukemia) > 2 µM and 1200 µM | GI50 (HOP-62 NSCLC) > 2000 µM | GI50 (A549 NSCLC) > 2000 µM | GI50 (SF-268 CNS) > 2 µM | GI50 (SK-OV-3 ovarian) > 2000 µM | GI50 (786-0 renal) > 2000 µM | GI50 (UO-31 renal) > 2000 µM | GI50 (LXFL 529 NSCLC) > 2000 µM | GI50 (SN12C renal) > 2000 µM | GI50 (KM20L2 colon) > 2000 µM | GI50 (DMS 273 small cell lung) > 2000 µM | GI50 (HT29 colon) > 2000 µM | GI50 (MOLT-4 leukemia) > 2 µM | GI50 (HOP-92 NSCLC) > 2000 µM | GI50 (HCT-15 colon) > 2000 µM | GI50 (U251 CNS) > 2000 µM | GI50 (UACC-257 melanoma) > 2000 µM | GI50 (OVCAR-8 ovarian) > 2000 µM | GI50 (SNB-19 CNS) > 2000 µM | GI50 (CCRF-CEM leukemia) 198 µM and 520 µM | GI50 (OVCAR-4 ovarian) > 2000 µM | GI50 (UACC-62 melanoma) > 2000 µM | GI50 (HOP-18 NSCLC) > 2000 µM | GI50 (MALME-3M melanoma) > 2000 µM | GI50 (M19-MEL melanoma) > 2000 µM | GI50 (SNB-75 CNS) > 2000 µM
> 2 µM and 649 µM and 1240 µM: TGI (CCRF-CEM leukemia)
> 2 µM and 313 µM and > 2000 µM: TGI (HOP-62 NSCLC)
